Measured values as given in US12649751B2 (Arcus Biosciences, Inc., priority 2022, dated 2026).
Like-named read-outs stand apart in the source and are kept apart here.

Tests used:
[1] = system: p-SLP-76 (Ser376) in Jurkat cells; assay: pSLP76 Cellular Assay (AlphaLISA SureFire Ultra p-SLP-76 (Ser376), anti-CD3 activated Jurkat cells); format: cell-based; details: Homo sapiens, read-out: Cellular Potency
In short: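 Jurkat cells, serum-starved overnight in Opti-MEM then in HBSS, preincubated 1 h at 37 °C with 22-point 2-fold compound dilutions, then stimulated with anti-CD3 (0.025 mg/ml added solution) for 45 min. Lysate p-SLP-76 (Ser376) measured by AlphaLISA at 570 nm; IC50 from 4-parameter logistic fit.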

HPK1 = HPK1 (Homo sapiens, UniProt Q92918); assay: HPK1 Biochemical Assay (ADP-Glo luminescence; low ATP 10 μM or high ATP 200 μM)
[2] = pSLP76 (Ser376) AlphaLISA, anti-CD3 activated Jurkat cells
[3] = HPK1 ADP-Glo assay, high ATP (200 μM ATP, 5 nM HPK1), read-out: Biochemical Potency (high ATP)
[4] = Jurkat cells, anti-CD3 stimulation, pSLP76
[5] = 2 nM HPK1, 10 μM ATP, read-out: Biochemical Potency (low ATP)
[6] = HPK1 ADP-Glo assay, low ATP (10 μM ATP, 2 nM HPK1), read-out: Biochemical Potency (low ATP)

Chain of HPK1 (Q92918 whole entry, species assumed): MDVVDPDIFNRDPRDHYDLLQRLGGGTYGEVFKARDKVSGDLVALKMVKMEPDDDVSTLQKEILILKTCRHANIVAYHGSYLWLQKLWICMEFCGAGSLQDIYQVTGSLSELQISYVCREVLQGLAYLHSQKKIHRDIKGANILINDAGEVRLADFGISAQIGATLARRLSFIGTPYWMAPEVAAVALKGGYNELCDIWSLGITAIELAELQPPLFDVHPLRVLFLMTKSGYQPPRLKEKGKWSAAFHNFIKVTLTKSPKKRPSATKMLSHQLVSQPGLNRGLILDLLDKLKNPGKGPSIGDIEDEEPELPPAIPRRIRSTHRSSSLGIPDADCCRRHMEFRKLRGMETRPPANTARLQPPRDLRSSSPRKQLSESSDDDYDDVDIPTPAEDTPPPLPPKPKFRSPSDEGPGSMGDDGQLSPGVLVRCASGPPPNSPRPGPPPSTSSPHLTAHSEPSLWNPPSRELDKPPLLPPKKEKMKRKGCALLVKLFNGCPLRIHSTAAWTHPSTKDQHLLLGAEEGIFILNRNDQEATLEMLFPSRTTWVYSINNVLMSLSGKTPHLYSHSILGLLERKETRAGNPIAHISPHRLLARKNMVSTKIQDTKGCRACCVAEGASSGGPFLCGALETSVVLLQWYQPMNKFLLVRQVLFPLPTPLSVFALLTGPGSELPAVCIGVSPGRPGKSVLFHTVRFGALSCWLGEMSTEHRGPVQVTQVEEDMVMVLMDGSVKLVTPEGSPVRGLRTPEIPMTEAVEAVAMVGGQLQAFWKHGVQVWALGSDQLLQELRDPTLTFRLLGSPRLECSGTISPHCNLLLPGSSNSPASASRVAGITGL

Row | Compound | IC50 [1, 2] [µM] | IC50 (HPK1; [3]) [µM] | IC50 [1, 4] [µM] | IC50 (HPK1; [5]) [µM] | IC50 (HPK1; [6]) [µM]
1 | CCN1C[C@@H]2C[C@H]1CN2c1nc(C)cc(Nc2cc3nc(-c4ccc(F)c(C(=O)NC5CCCC5)c4)sc3cn2)n1 [Example 513] | < 0.1 | < 0.1 |  |  | 
2 | Cc1ccc(Nc2cc3nc(-n4cccn4)sc3cn2)nc1CN1CCCC1 [Example 200, 5-Methyl-N-[2-(1H-pyrazol-1-yl)-[1,3]thiazolo[5,4-c]pyridin-6-yl]-6-[(pyrrolidin-1-yl)methyl]pyridin-2-amine] |  |  | 1 to 5 | < 0.1 | 
3 | Cc1cc(Nc2cc3nc(-c4cnn(C(C)(C)C#N)c4)sc3cn2)nc(N2C[C@@H]3C[C@H]2CN3CCO)n1 [Example 355] | 0.1 to 1 | < 0.1 |  |  | 
4 | CCN(CC)S(=O)(=O)c1cc(C)cc(-c2nc3cc(Nc4cc(C)nc(N5C[C@@H]6C[C@H]5CN6CCO)n4)ncc3s2)c1 [Example 343] | 1 to 5 | < 0.1 |  |  | 
5 | CC(C)c1ccc(Nc2cc3nc(-c4cnn(C)c4)sc3cn2)nc1CN1CCCC1 [Example 227, N-[2-(1-Methyl-1H-pyrazol-4-yl)-[1,3]thiazolo[5,4-c]pyridin-6-yl]-5-(propan-2-yl)-6-[(pyrrolidin-1-yl)methyl]pyridin-2-amine] |  |  | 0.1 to 1 | < 0.1 | 
6 | Cc1ccc(Nc2cc3nc(-n4nccc4C)sc3cn2)nc1CN1CCCC1 [Example 197, 5-Methyl-N-[2-(5-methyl-1H-pyrazol-1-yl)-[1,3]thiazolo[5,4-c]pyridin-6-yl]-6-[(pyrrolidin-1-yl)methyl]pyridin-2-amine] |  |  | 0.1 to 1 | < 0.1 | 
7 | CCc1cc(C(=O)N(C)C)cc(-c2nc3cc(Nc4cc(C)nc(N5C[C@@H]6C[C@H]5CN6CCO)n4)ncc3s2)c1 [Example 546] | < 0.1 | < 0.1 |  |  | 
8 | CCNC(C)c1nc(Nc2cc3nc(-c4c(F)cccc4F)sc3cn2)ccc1N1CCOCC1 (stereo not shown) [Example 278, N-[2-(2,6-Difluorophenyl)-[1,3]thiazolo[5,4-c]pyridin-6-yl]-6-[1-(ethylamino)ethyl]-5-(morpholin-4-yl)pyridin-2-amine] |  |  | > 5 | < 0.1 | 
9 | Cc1cccnc1-c1nc2cc(Nc3ccc(C4CCOCC4)c(CN4CCCC4)n3)ncc2s1 [Example 212, N-[2-(3-Methylpyridin-2-yl)-[1,3]thiazolo[5,4-c]pyridin-6-yl]-5-(oxan-4-yl)-6-[(pyrrolidin-1-yl)methyl]pyridin-2-amine] |  |  | < 0.1 | < 0.1 | 
10 | Cc1ccc(Nc2cc3nc(-c4ccnn4C)sc3cn2)nc1O[C@H]1CCNC1 [Example 182, 5-Methyl-N-[2-(1-methyl-1H-pyrazol-5-yl)-[1,3]thiazolo[5,4-c]pyridin-6-yl]-6-[(3S)-pyrrolidin-3-yloxy]pyridin-2-amine] |  |  | 0.1 to 1 | < 0.1 | 
11 | COc1cccc(F)c1-c1nc2cc(Nc3ccc(N4CCOCC4)c(CN(C)C)n3)ncc2s1 [Example 26, 6-[(Dimethylamino)methyl]-N-[2-(2-fluoro-6-methoxyphenyl)-[1,3]thiazolo[5,4-c]pyridin-6-yl]-5-(morpholin-4-yl)pyridin-2-amine] |  |  | 0.1 to 1 | < 0.1 | 
12 | CCN1C[C@@H]2C[C@H]1CN2c1nc(C)cc(Nc2cc3nc(-c4cccc(C(=O)N(C)C5CCN(C(C)=O)CC5)c4)sc3cn2)n1 [Example 568] | 1 to 5 | 0.1 to 1 |  |  | 
13 | Cc1cc(Nc2cc3nc(-c4cccc(C(=O)N[C@@H]5CCCOC5)c4)sc3cn2)nc(N2C[C@@H]3C[C@H]2CN3CCO)n1 [Example 540] | < 0.1 | < 0.1 |  |  | 
14 | Cc1cc(Nc2cc3nc(-c4cncc(N5CCOC[C@H]5C)c4)sc3cn2)nc(N2C[C@@H]3C[C@H]2CN3CCO)n1 [Example 476] | < 0.1 | < 0.1 |  |  | 
15 | c1cc(-c2nnco2)cc(-c2nc3cc(Nc4cccc(N5C[C@@H]6C[C@H]5CN6)n4)ncc3s2)c1 [Example 142, 6-[(1S,4S)-2,5-Diazabicyclo[2.2.1]heptan-2-yl]-N-{2-[3-(1,3,4-oxadiazol-2-yl)phenyl]-[1,3]thiazolo[5,4-c]pyridin-6-yl}pyridin-2-amine] |  |  | 1 to 5 | < 0.1 | 
16 | CCN1C[C@@H]2C[C@H]1CN2c1nc(C)cc(Nc2cc3nc(-c4cccc(N5CCC(F)CC5)c4)sc3cn2)n1 [Example 338] | 1 to 5 | < 0.1 |  |  | 
17 | Fc1cccc(F)c1-c1nc2cc(Nc3ccc4c(c3)CC[C@@H](N3C5COCC3C5)CC4)ncc2s1 [Example 329] | 5 to 25 |  |  |  | 0.1 to 1
18 | Cc1ccnn1-c1nc2cc(Nc3ccc(C4CCOCC4)c(CN[C@H]4CCOC4)n3)ncc2s1 [Example 209, N-[2-(5-Methyl-1H-pyrazol-1-yl)-[1,3]thiazolo[5,4-c]pyridin-6-yl]-5-(oxan-4-yl)-6-({[(3S)-oxolan-3-yl]amino}methyl)pyridin-2-amine] |  |  | 1 to 5 | < 0.1 | 

The next lines start with the values.

Row | IC50 [1, 2] [µM] | IC50 (HPK1; [3]) [µM] | IC50 [1, 4] [µM] | IC50 (HPK1; [5]) [µM] | IC50 (HPK1; [6]) [µM] | Compound
19 |  |  | 1 to 5 | < 0.1 |  | Cc1cccnc1-c1nc2cc(Nc3cccc(N4C[C@@H](N)C[C@H]4CO)n3)ncc2s1 [Example 66, [(2S,4S)-4-Amino-1-(6-{[2-(3-methylpyridin-2-yl)-[1,3]thiazolo[5,4-c]pyridin-6-yl]amino}pyridin-2-yl)pyrrolidin-2-yl]methanol]
20 |  |  | 1 to 5 | < 0.1 |  | Cc1c(-c2nc3cc(Nc4cccc(N5C[C@@H]6C[C@H]5CN6C)n4)ncc3s2)cnc2c1NCCO2 [Example 134, N-(2-{8-Methyl-1H,2H,3H-pyrido[2,3-b][1,4]oxazin-7-yl}-[1,3]thiazolo[5,4-c]pyridin-6-yl)-6-[(1S,4S)-5-methyl-2,5-diazabicyclo[2.2.1]heptan-2-yl]pyridin-2-amine]
21 |  |  | 1 to 5 | < 0.1 |  | CNC(=O)c1cccc(-c2nc3cc(Nc4cccc(N5C[C@@H]6C[C@H]5CN6C)n4)ncc3s2)c1 [Example 135, N-Methyl-3-[6-({6-[(1S,4S)-5-methyl-2,5-diazabicyclo[2.2.1]heptan-2-yl]pyridin-2-yl}amino)-[1,3]thiazolo[5,4-c]pyridin-2-yl]benzamide]
22 | 0.1 to 1 | < 0.1 |  |  |  | Cc1cccnc1-c1nc2cc(Nc3cc(-c4cnccc4C#N)cc(N4C[C@@H]5C[C@H]4CN5C)n3)ncc2s1 [Example 434]
23 |  |  | > 5 | < 0.1 |  | Cc1cccnc1-c1nc2cc(Nc3cccc(N4CCN5CCC[C@@H]5C4)n3)ncc2s1 [Example 114, 6-[(8aR)—Octahydropyrrolo[1,2-a]pyrazin-2-yl]-N-[2-(3-methylpyridin-2-yl)-[1,3]thiazolo[5,4-c]pyridin-6-yl]pyridin-2-amine]
24 |  |  | 0.1 to 1 | < 0.1 |  | Cc1cccnc1-c1nc2cc(Nc3cccc(N4C[C@H](N)C[C@H]4CO)n3)ncc2s1 [Example 70, [(2S,4R)-4-Amino-1-(6-{[2-(3-methylpyridin-2-yl)-[1,3]thiazolo[5,4-c]pyridin-6-yl]amino}pyridin-2-yl)pyrrolidin-2-yl]methanol]
25 | 0.1 to 1 | < 0.1 |  |  | < 0.1 | Cc1cccnc1-c1nc2cc(Nc3cc(C(F)(F)F)cc(N4C[C@@H]5C[C@H]4CN5C)n3)ncc2s1 [Example 323]
26 | < 0.1 | < 0.1 |  |  | < 0.1 | Cc1cccnc1-c1nc2cc(Nc3cnc(C4CCOCC4)c(N4C[C@@H]5C[C@H]4CN5)n3)ncc2s1 [Example 510]
27 | 0.1 to 1 |  |  |  | < 0.1 | CN1C[C@@H]2C[C@H]1CN2c1nc(Nc2cc3nc(-c4cncc(C(C)(C)O)c4)sc3cn2)cc(C2CCOCC2)n1 [Example 438]
28 | 0.1 to 1 | < 0.1 |  |  |  | Cc1cc(Nc2cc3nc(-c4cncc(C(F)F)c4)sc3cn2)nc(N2C[C@@H]3C[C@H]2CN3C)n1 [Example 384]
29 | 0.1 to 1 |  |  |  | < 0.1 | Cc1cccnc1-c1nc2cc(Nc3ccc4c(n3)CN(C)CC4)ncc2s1 [Example 327]
30 | 1 to 5 | < 0.1 |  |  |  | Cc1cc(Nc2cc3nc(-c4cccc(C(N)=O)c4)sc3cn2)nc(N2C[C@@H]3C[C@H]2CN3CCO)n1 [Example 553]
31 |  |  | 0.1 to 1 | < 0.1 |  | CN1C[C@@H]2C[C@H]1CN2c1cccc(Nc2cc3nc(-c4cccc(C(N)=O)c4)sc3cn2)n1 [Example 128, 3-[6-({6-[(1S,4S)-5-Methyl-2,5-diazabicyclo[2.2.1]heptan-2-yl]pyridin-2-yl}amino)-[1,3]thiazolo[5,4-c]pyridin-2-yl]benzamide]
32 |  |  | 1 to 5 | < 0.1 |  | Cc1cccnc1-c1nc2cc(Nc3cccc(N4CC5CCC4CN5C)n3)ncc2s1 (stereo not shown) [Example 97, 6-{5-Methyl-2,5-diazabicyclo[2.2.2]octan-2-yl}-N-[2-(3-methylpyridin-2-yl)-[1,3]thiazolo[5,4-c]pyridin-6-yl]pyridin-2-amine]
33 | 0.1 to 1 |  |  |  | < 0.1 | Cc1cccnc1-c1nc2cc(Nc3ccc4c(n3)[C@@H](N)CC4)ncc2s1 [Example 581]
34 |  |  | 1 to 5 | < 0.1 |  | COc1cccc(F)c1-c1nc2cc(Nc3cccc(N4CC5CCC4CN5C)n3)ncc2s1 (stereo not shown) [Example 79, N-[2-(2-Fluoro-6-methoxyphenyl)-[1,3]thiazolo[5,4-c]pyridin-6-yl]-6-{5-methyl-2,5-diazabicyclo[2.2.2]octan-2-yl}pyridin-2-amine]
